# According to the Kinase Knowledgebase extract (Sharma et al. 2016):
# Molecular target: EGFR (mouse) (UniProt P00533)
# Settings: swiss 3t3 membrane
row,SMILES,IC50
1,N#C/C(=C\c1c[nH]c2ccccc12)C(=O)c1ccc(O)c(O)c1,30 µM
2,COc1ccc(OC)c2nc(Cl)c(-c3ccccc3)cc12,> 30 µM
3,N#CC(C#N)=C(N)/C(C#N)=C/c1c[nH]c2ccccc12,> 300 µM
